Assay results published in patent publication US20060110371A1, “Control of indoleamine 2,3 deoxygenase expression and activity” (INSTITUT PASTEUR, priority 2004, published 2006).

How the values were obtained:
[1] = test system: tumors expressing IDO; settings: mice with IDO-transfected tumors; cited from earlier work
[2] = test system: IDO mRNA; assay: IDO mRNA expression by quantitative RT-PCR in monocyte-derived DCs; type: cell-based, human; settings: for effect on IDO mRNA levels induced by PGE2 or forskolin plus TNFα: inhibitor present during 48 hrs culture
Procedure: Isolation and preparation of cells. Peripheral blood mononuclear cells (PBMCs), DCs and T cells were prepared as described. Briefly, buffy coats were obtained from normal donors (EFS, Rungis) and PBMCs were isolated by sedimentation over Ficoll-Hypaque (Pharmacia Biotech, Piscataway, N.J.). CD 14-enriched and CD-14-depleted fractions were prepared by the use of CD14 Miltenyi microbeads followed by magnetic cell sorting according to the manufacturers' instruction (Miltenyi Biotech, Auburn, Calif.). Immature DCs were prepared by the use of CD14+ fraction by culturing cells in the presence of GM-CSF (Berlix, Seattle, Wash.) and IL-4 (R&D Systems, Minneapolis, Minn.) for 7 days. GM-CSF (1000 U/ml) and IL-4 (500 U/ml) were added to the cultures on days 0, 2, and 4. To generate mature DCs, the cultures were transferred to fresh wells on days 6-7 and the indicated maturation stimulus was added for an additional 1-2 days. At days 6-7, >95% of the cells were CD13^−CD83^−HLA-r^lo DCs. After maturation, on days 8-9, 70-95% of the cells were of the mature […] phenotype. CD4+ and CD8+ T cells were purified from the CD14− fraction to >99% purity by positive selection with the MACS column purification system.
Quantitative analysis of IDO mRNA expression. IDO mRNA detection by real-time PCR. Briefly, RNA was extracted by Tri-reagent (Sigma) and cDNA was synthesized from 1-2 μg RNA using oligo dT (Roche) and Superscript reverse transcriptase (Invitrogen) according to manufacturers' instructions. IDO specific mRNA is quantified relative to GAPDH or TBP (TATA box Binding Protein) using the following primers: IDO forward: 5′[…]-3′ (SEQ ID NO:1), IDO reverse: 5′-[…]-3′ (SEQ ID NO:2), GAPDH forward: 5′[…]-3′ (SEQ ID NO:3), GAPDH reverse: 5′-[…]-3′ (SEQ ID NO:4) TBP forward: 5′-[…]-3′ (SEQ ID NO: 5); TBP reverse: 5′-[…]-3′ (SEQ ID NO: 6),Primers for EP receptors are described in Kamphuis et al. Invest Ophthalmol Vis Sci. 42, 3209-3215 (2001). Quantitative RT-PCR was performed using the SYBR® Green JumpStart™ Taq ReadyMix™ (Sigma) according to manufacturer's instructions. The reactions were run on a PTC200 equipped with a Chromo4™ detector (MJ Research, Mass., USA). […] The ratio gene of interest/housekeeping genes was calculated according to the formula: ratio=2^−dCt (dCT=mean Ct gene−mean Ct housekeeping). […]
Based on IDO's proposed role in immune tolerance, the present inventors evaluated the effect of different DC maturation stimuli on IDO expression. […] The present inventors first established assays to monitor IDO mRNA expression using realtime quantitative RT-PCR (qPCR), and Western blot. RNA was extracted from immature DCs (iDC) exposed to distinct maturation stimuli and IDO expression was quantified as described in the Materials and Methods.

[3] = target: human prostanoid receptors; settings: four receptors (EP1-4) binding PGE2 with high affinity; cited from earlier work
[4] = test system: EP2; assay: EP2 mRNA expression in DCs by quantitative RT-PCR; type: cell-based, human; settings: relative to TBP
Procedure: (A) The present inventors monitored EP2 and EP4 mRNA expression in DCs exposed to TNFα, PGE2 or a combination of both stimuli. TBP was used as a reference for our qPCR studies as its expression levels matched that of the EP-Rs. White bars represent EP2 levels; black bars indicated EP4 expression. […] All were used at a concentration of 50 μM.
Briefly, RNA was extracted by Tri-reagent (Sigma) and cDNA was synthesized from 1-2 μg RNA using oligo dT (Roche) and Superscript reverse transcriptase (Invitrogen) according to manufacturers' instructions. […] Quantitative RT-PCR was performed using the SYBR® Green JumpStart™ Taq ReadyMix™ (Sigma) according to manufacturer's instructions. The reactions were run on a PTC200 equipped with a Chromo4™ detector (MJ Research, Mass., USA). […] All the measures were performed in duplicates and validated when the difference in Ct between the 2 measures was less than 0.3. […] The ratio gene of interest/housekeeping genes was calculated according to the formula: ratio=2^−dCt (dCT=mean Ct gene−mean Ct housekeeping). GAPDH and TBP were used to normalize for IDO and EP-receptor mRNA expression, respectively.

[5] = test system: IDO; assay: IDO enzymatic activity, kynurenine by colorimetric assay (Ehrlich's reagent), in monocyte-derived DCs; type: cell-based, human
Procedure: Determination of IDO enzymatic activity and Kynurenine assays. Tryptophan is catabolized by IDO to N-formylkynrenine, which is rapidly converted to kynurenine. Measurement of kynurenine levels is a surrogate marker for IDO activity.
Except where stated, cells were incubated for an additional 4 hours, followed by harvest of supernatant and quantitation of kynurenine by HPLC or using a colormetric assay.
Alternatively, kynurenine concentrations in the culture supernatants were measured using a colormetric assay (i.e., spectrophotometrically). 50 μl of 30% trichloroacetic acid was added to 100 μl of the culture supernatant, vortexed, and then centrifuged at 10,000 rpm for 5 minutes. A 75 μl volume of the supernatant was added to 75 μl of Ehrlich's reagent (100 mg of […], 5 ml of glacial acetic acid) in a microtiter plate well (96-well format). Optical density was measured at 480 nm filter with a Multiskan MS (Labsystems) microplate reader. The values were referred to a standard curve of defined kynurenine concentrations ([…]).
To validate this approach, the present inventors established a standard curve for quantifying kynurenine and compared the experimental values obtained using the calorimetric assay with those from the HPLC analysis.

## Cn1cc(C[C@@H](N)C(=O)O)c2ccccc21 [1-MT, 1-Methyl-D-tryptophan]
[1]
  protective tumor immunity: recovered the ability to establish protective immunity

## O=S(=O)(NCCNC/C=C/c1ccc(Br)cc1)c1cccc2cnccc12 [H-89]
[2]
  effect on IDO mRNA levels induced by PGE2 or forskolin plus TNFα: block IDO expression

## CCCCC[C@H](O)/C=C/[C@H]1[C@H](O)CC(=O)[C@@H]1C/C=C\CCCC(=O)O [PGE2, prostaglandin E2]
[2]; PGE2 treated DCs vs iDCs
  increase in transcription of IDO: 50-200 fold
[3]
  Kd: low nM range
[4]
  EP2 mRNA expression: down-regulation of EP2
[5]; DCs treated with the stimulus alone
  IDO activity (kynurenine, colorimetric), stimulus alone: lacked measurable IDO activity

## Nc1ncnc2c1ncn2C1CCCO1 (centres unmarked) [SQ22536]
[2]
  effect on IDO mRNA levels induced by PGE2 or forskolin plus TNFα: block IDO expression
[5]; inhibitor added during 48 hrs maturation
  effect on IDO activity of PGE2/forskolin +/- TNFα matured DC: blocks IDO expression/activity
[5]; titrated
  optimal inhibitor concentration against forskolin-induced IDO: 1 mM

## CCCC1([C@H](O)C/C=C/[C@H]2[C@H](O)CC(=O)[C@@H]2CCCCCCC(=O)OC)CCC1 [butaprost, Butaprost]
[5]; iDCs treated in combination with TNFα, 48 hrs
  IDO activity in the presence of TNFα (PGE2 replaced): resulted in the induction of IDO activity

## TNFα
[2]; iDCs exposed to the stimulus
  IDO mRNA expression (in words): did not upregulate IDO expression
